Measured values reported in paper PMC9294487 (eBioMedicine, 2022).

Tests used:
[1] = target: T1, E. multilocularis DNA damage-inducible 1 protein (EmuDdi1) (Echinococcus multilocularis, UniProt A0A068Y9Y4); experiment: fluorogenic aspartyl protease assay, single concentration; assay type: biochemical; conditions: read-out: % inhibition at 40 μM
T1 sequence (A0A068Y9Y4 1-390): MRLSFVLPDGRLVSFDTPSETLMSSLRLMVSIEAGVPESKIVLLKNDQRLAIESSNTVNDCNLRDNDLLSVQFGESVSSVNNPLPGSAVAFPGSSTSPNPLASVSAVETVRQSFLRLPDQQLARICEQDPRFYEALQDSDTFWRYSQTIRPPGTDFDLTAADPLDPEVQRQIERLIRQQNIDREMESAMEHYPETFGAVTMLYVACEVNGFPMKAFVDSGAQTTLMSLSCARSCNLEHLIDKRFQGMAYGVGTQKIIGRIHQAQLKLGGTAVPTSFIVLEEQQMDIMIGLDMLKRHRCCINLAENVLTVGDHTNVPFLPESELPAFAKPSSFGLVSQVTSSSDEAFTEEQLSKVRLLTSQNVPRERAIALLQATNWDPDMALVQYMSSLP

[2] = target: T1, E. multilocularis DNA damage-inducible 1 protein (EmuDdi1); experiment: fluorogenic aspartyl protease assay; assay type: biochemical

`CC(C)(C)NC(=O)[C@@H]1C[C@@H]2CCCC[C@@H]2CN1C[C@@H](O)[C@H](Cc1ccccc1)NC(=O)[C@H](CC(N)=O)NC(=O)c1ccc2ccccc2n1` [SQV, saquinavir] was tested, and the inhibition at 40 µM [1] was ~40%.
For `Cc1c(O)cccc1C(=O)N[C@@H](CSc1ccccc1)[C@H](O)CN1C[C@H]2CCCC[C@H]2C[C@H]1C(=O)NC(C)(C)C` [NFV, nelfinavir], the IC50 [2] was 45.9 µM.
